Legend:
ERα = target: T1, ERα (Homo sapiens, UniProt P03372); experiment: Fluorescence Polarization Competition Assay, ERα binding (Panvera kit); settings: first ER column
T1 construct: purchased Panvera P2698
T1 sequence (P03372 1-595): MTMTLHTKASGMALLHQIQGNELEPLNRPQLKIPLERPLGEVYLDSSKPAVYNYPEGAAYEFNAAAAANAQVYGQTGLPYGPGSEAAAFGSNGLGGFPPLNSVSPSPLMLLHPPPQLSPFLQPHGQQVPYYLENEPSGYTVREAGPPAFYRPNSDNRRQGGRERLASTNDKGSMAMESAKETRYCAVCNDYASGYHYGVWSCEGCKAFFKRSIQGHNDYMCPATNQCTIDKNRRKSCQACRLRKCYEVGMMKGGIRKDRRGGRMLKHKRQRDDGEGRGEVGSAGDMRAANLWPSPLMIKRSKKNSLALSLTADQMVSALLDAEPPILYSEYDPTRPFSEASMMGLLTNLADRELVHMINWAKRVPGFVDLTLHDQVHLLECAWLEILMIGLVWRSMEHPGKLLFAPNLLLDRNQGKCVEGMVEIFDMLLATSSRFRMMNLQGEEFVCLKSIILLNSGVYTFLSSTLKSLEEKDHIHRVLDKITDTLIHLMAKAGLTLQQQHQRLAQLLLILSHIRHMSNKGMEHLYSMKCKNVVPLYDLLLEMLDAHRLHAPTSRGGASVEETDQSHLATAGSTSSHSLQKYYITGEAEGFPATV
Protocol: (§1) A number of compounds were tested for ERα and ERβ binding using Panvera's Fluorescence Polarization Competition Assay Kits (cat. nos. P2698 and P2700). Briefly, ERα or ERβ were thawed on ice from −80° C. An estrogen receptor and fluorescent ligand (Fluormone™) complex was formed at a 15/1 molar ratio for ERα and at a 10/1 molar ratio for ER≈ (2X complex). Serial dilutions of the test compounds were made in assay buffer and the assay was initiated by adding 50 ul of the 2X receptor-ligand complex to 50 ul of compound solution in black 96-well plates. Zero percent competition (theoretical maximum polarization) was measured in wells containing 50 ul of buffer and 50 ul of the 2X receptor-ligand complex. The plates were incubated after gentle shaking in the dark at room temperature. Polarization values (mP) were read no longer than 7 hours after the reaction was started with a FARCyte Fluorescent reader (Amersham) at excitation and emission wavelengths of 485 nm and 535 nm, respectively. Data was analyzed using non-linear regression and IC50 values determined using GraphPad Prism. Estradiol was used as the reference compound.

mature oligodendrocytes = experiment: Oligodendrocyte toxicity assay, protection of mature oligodendrocytes (OL) against SIN-1, LDH release; type: cell-based, rat; settings: 10 nM compound, 1 hour pretreatment, SIN-1 toxin, LDH after 24 hours
Protocol: (§2) Oligodendrocyte Toxicity Assay
(§3) Primary rat oligodendrocyte progenitor cells were obtained from the cerebra of 2-3 day old postnatal rats (Sprague Dawley). The meninges were removed and tissue was mechanically dissociated. Cells were plated on T75 flasks and fed with DMEM +10% FBS.
(§4) Enriched OLPs were collected by mechanical separation from the astrocytic monolayer and were expanded in serum free media (SFM) supplemented with the mitogens, PDGF-AA (10 ng/mI) and FGF-2 (10 ng/mI).
To generate mature oligodendrocytes, progenitor cells were switched to SFM supplemented with IGF-1 (10 ng/mi) 24 hours after plating and cells were grown under these conditions for 7 days prior to experimental assays.
(§5) Cells were plated in 96-well plates, 10,000 per well. Medium was changed to fresh medium and cells were pretreated with compounds for 1 hour. Toxins were added to give the following final concentrations: Sin-10 mM, Camptothecin 1 OM
(§6) After 24 hours, medium was removed and assayed for LDH activity using the Promega cytotox 96 kit (catalog# G1780). Results were calculated as percent protection against toxin-induced toxicity.
(§7) These compounds have been assessed for their efficacy in protection against cell death produced by toxic agents such as SIN-1 (3-morpholino-sydnonimine, producing peroxynitrite) and camptothecin. The target cells assessed in vitro are primary cultures of rodent oligodendrocyte progenitors and their mature counterparts.

[1] = system: primary rat oligodendrocyte progenitor cells; experiment: Oligodendrocyte toxicity assay, protection of oligodendrocyte progenitors (OLP) against SIN-1, LDH release; type: cell-based; settings: 10 nM compound, 1 hour pretreatment, SIN-1 toxin, LDH after 24 hours
Protocol: as §2, §3, §4, §5, §6, §7

ERβ = target: T2, ERβ (Homo sapiens, UniProt Q92731); experiment: Fluorescence Polarization Competition Assay, ERβ binding (Panvera kit); settings: for IC50: ER, fluorescence polarization competition; for ER[…] selectivity Fold Diff: ratio of the two ER binding IC50 values
T2 construct: purchased Panvera P2700
T2 sequence (Q92731 whole entry): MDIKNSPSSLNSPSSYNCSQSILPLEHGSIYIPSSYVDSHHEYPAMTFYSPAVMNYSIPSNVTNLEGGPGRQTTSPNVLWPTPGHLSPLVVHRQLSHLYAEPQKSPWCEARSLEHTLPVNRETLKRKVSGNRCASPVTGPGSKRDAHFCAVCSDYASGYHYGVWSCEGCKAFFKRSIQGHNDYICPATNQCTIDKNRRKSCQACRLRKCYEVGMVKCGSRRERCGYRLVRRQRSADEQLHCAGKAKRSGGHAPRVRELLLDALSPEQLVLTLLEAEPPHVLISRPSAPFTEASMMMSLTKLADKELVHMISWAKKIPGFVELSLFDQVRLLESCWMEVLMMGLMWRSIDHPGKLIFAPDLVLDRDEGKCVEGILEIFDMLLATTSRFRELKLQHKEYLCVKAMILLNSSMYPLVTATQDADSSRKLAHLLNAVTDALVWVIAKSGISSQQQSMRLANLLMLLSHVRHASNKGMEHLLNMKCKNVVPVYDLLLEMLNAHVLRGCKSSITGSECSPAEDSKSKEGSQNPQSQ
Protocol: as §1

IC50 (ERα) [nM] | IC50 (ERβ) [nM] | ER[…] selectivity Fold Diff (ERβ) [Fold] | SMILES | % Protection (SIN-1*) OL 10 nM (mature oligodendrocytes) [%] | % Protection (SIN-1*) OLP 10 nM [1] [%]
125 | 8 | 16 | O=[N+]([O-])c1cc(CO)cc(Br)c1-c1ccc(O)cc1 [2-bromo-4′-hydroxy-6-nitro-[1,1′-biphenyl]-4-methanol] | 12 | 16
157 | 6 | 25 | OCc1cc(Br)c(-c2ccc(O)cc2)c(-c2ccoc2)c1 [2-bromo-6-(furan-3-yl)-4′-hydroxy-[1,1′-biphenyl]-4-methanol] | 16 | 37
420 | 37 | 11 | CN(C)c1cc(CO)cc(Br)c1-c1ccc(O)cc1 [2-bromo-6-dimethylamino-4′-hydroxy-[1,1′-biphenyl]-4-methanol] | 12 | 45

Further lines, the compound ahead of its results:

SMILES | IC50 (ERα) [nM] | IC50 (ERβ) [nM] | ER[…] selectivity Fold Diff (ERβ) [Fold] | % Protection (SIN-1*) OL 10 nM (mature oligodendrocytes) [%] | % Protection (SIN-1*) OLP 10 nM [1] [%]
OCc1cc(Br)c(-c2ccc(O)cc2)c(Br)c1 [2,6-dibromo-4′-hydroxy-[1,1′-biphenyl]-4-methanol] | 60 | 9 | 7 | 11 | 51
OCc1cc(Cl)c(-c2ccc(O)cc2)c(Cl)c1 [2,6-dichloro-4′-hydroxy-[1,1′-biphenyl]-4-methanol] | 93 | 18 | 5 | 6 | 36
OCc1cc(Br)c(-c2ccc(O)cc2)c(-n2cccc2)c1 [2-bromo-4′-hydroxy-6-(1H-pyrrol-1-yl)-1,1′-biphenyl]-4-methanol] | 408 | 15 | 27 | 15 | 10

Reference: patent publication US20070249706A1, “USE OF CERTAIN BIPHENYL COMPOUNDS FOR PROTECTION OF NEURONS AND OLIGODENDROCYTES IN THE TREATMENT OF MULTIPLE SCLEROSIS (MS)” (AVENTIS PHARMACEUTICALS INC., priority 2004, published 2007)
